Source: publication PMC7397274, “Triazolopyridopyrimidine: A New Scaffold for Dual-Target Small Molecules for Alzheimer’s Disease Therapy” (Molecules, 2020)
Values joined by “and” are separate entries in the source; they are usually repeats but may differ in a detail not shown here. Identical values can stand only once. Like-named read-outs stand apart in the source and are kept apart here.

What was measured:
[1] = molecular target: T1, EeAChE (Electrophorus electricus, UniProt O42275); assay: biochemical; type: biochemical; details: for inhibition at 10 µM: 10 μM compound; for inhibition at 10 µM / IC50: Ellman method; for IC50: mean ± SEM; for fold less active than tacrine (EeAChE IC50): relative to tacrine IC50 = 0.03 μM
T1 construct: purchased Sigma Aldrich
T1 sequence (O42275 24-633): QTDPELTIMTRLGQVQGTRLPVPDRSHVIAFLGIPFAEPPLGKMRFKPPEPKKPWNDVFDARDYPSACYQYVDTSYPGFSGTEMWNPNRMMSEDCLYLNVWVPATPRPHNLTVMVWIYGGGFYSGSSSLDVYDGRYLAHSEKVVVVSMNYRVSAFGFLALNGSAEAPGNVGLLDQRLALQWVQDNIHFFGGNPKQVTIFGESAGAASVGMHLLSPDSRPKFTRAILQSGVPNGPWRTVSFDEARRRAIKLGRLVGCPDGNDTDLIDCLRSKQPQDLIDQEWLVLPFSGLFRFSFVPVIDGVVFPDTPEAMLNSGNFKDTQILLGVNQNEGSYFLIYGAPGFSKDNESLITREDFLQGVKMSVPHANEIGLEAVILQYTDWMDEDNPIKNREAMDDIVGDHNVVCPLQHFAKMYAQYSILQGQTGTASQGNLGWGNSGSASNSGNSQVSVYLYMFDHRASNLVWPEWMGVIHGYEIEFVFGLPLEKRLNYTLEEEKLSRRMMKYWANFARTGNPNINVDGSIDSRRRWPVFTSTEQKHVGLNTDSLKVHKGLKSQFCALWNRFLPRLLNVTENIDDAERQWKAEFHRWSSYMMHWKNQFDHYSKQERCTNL
Protocol: The effect of the test compounds on the activity of both EeAChE and eqBuChE was evaluated following the spectrophotometric method of Ellman. The reaction occurred in a final volume of 3 mL of a 0.1 M phosphate-buffered solution at pH = 8.0, containing 5,5′-dithiobis-2-nitrobenzoic acid (DTNB, 2625 µL, 0.35 mM, final concentration), EeAChE (29 µL, 0.035 U/mL, final concentration) or eqBuChE (60 µL, 0.05 U/mL, final concentration), tested compound (3 µL, […]), and 1% w/v bovine albumin serum phosphate-buffered (pH = 8) solution (BSA, 60 µL). After this pre-incubation period, acetylthiocholine iodide (105 µL, 0.35 mM, final concentration) or butyrylthiocholine iodide (150 µL, 0.5 mM, final concentration) was added, allowing 15 min of additional incubation time.

[2] = ORAC-FL; for ORAC (TE): fluorescein probe, Trolox standard, mean (n = 3) ± SEM; for antioxidant activity (ORAC) in words: qualitative statement or comparison with positive controls

SMILES	inhibition at 10 µM [1] [%]	IC50 [1]	fold less active than tacrine (EeAChE IC50) [1] [fold]	ORAC (TE) [2]	antioxidant activity (ORAC) in words [2]	ORAC (TE) ([2]; listed as ferulic acid)
COc1ccc(-c2c(C#N)c3nc(-c4ccccc4)nn3c3ncnc(N)c23)cc1 [Compound 3c, 6-Amino-5-(4-methoxyphenyl)-2-phenyl-[1,2,4]triazolo[1′,5′:1,6]pyrido[2,3-d] pyrimidine-4-carbonitrile]	63.9 ± 1.8	1.3 µM and 1.32 µM	44	4.01 TE and 4.01 ± 0.1 TE	–	–
N#Cc1c(-c2ccc(Oc3ccccc3)cc2)c2c(N)ncnc2n2nc(-c3ccccc3)nc12 [Compound 3k, 6-Amino-5-(4-phenoxyphenyl)-2-phenyl-[1,2,4]triazolo[1′,5′:1,6]pyrido[2,3-d] pyrimidine-4-carbonitrile]	18.6 ± 1.8	–	–	2.99 ± 0.2 TE	weaker antioxidant activity	–
CC(C)c1ccc(-c2c(C#N)c3nc(-c4ccccc4)nn3c3ncnc(N)c23)cc1 [Compound 3i, 6-Amino-5-(4-isopropylphenyl)-2-phenyl-[1,2,4]triazolo[1′,5′:1,6]pyrido[2,3-d] pyrimidine-4-carbonitrile]	18.2 ± 1	–	–	1.89 ± 0.1 TE	–	–
COc1cccc(-c2c(C#N)c3nc(-c4ccccc4)nn3c3ncnc(N)c23)c1 [Compound 3d, 6-Amino-5-(3-methoxyphenyl)-2-phenyl-[1,2,4]triazolo[1′,5′:1,6]pyrido[2,3-d] pyrimidine-4-carbonitrile]	31.2 ± 2.1	–	–	4.33 ± 0.1 TE	–	–
N#Cc1c(-c2ccc(Br)cc2)c2c(N)ncnc2n2nc(-c3ccccc3)nc12 [Compound 3j, 6-Amino-5-(4-bromophenyl)-2-phenyl-[1,2,4]triazolo[1′,5′:1,6]pyrido[2,3-d] pyrimidine-4-carbonitrile]	38.1 ± 1.1	–	–	2.57 ± 0.0 TE	–	–
N#Cc1c(-c2ccc([N+](=O)[O-])cc2)c2c(N)ncnc2n2nc(-c3ccccc3)nc12 [Compound 3h, 6-Amino-5-(4-nitrophenyl)-2-phenyl-[1,2,4]triazolo[1′,5′:1,6]pyrido[2,3-d] pyrimidine-4-carbonitrile]	44.6 ± 1.6	–	–	3.54 ± 0.1 TE	moderate antioxidants	–
N#Cc1c(-c2ccc(O)cc2)c2c(N)ncnc2n2nc(-c3ccccc3)nc12 [Compound 3g, 6-Amino-5-(4-hydroxyphenyl)-2-phenyl-[1,2,4]triazolo[1′,5′:1,6]pyrido[2,3-d] pyrimidine-4-carbonitrile]	36.4 ± 0.6	–	–	7.17 TE and 7.17 ± 0.2 TE	most potent antioxidant	–
Cc1ccc(-c2c(C#N)c3nc(-c4ccccc4)nn3c3ncnc(N)c23)cc1 [Compound 3b, 6-Amino-2-phenyl-5-(p-tolyl)-[1,2,4]triazolo[1′,5′:1,6]pyrido[2,3-d] pyrimidine-4-carbonitrile]	73.13 ± 0.1	1.17 µM	39	1.77 TE and 1.77 ± 0.1 TE	–	–
N#Cc1c(-c2ccccc2)c2c(N)ncnc2n2nc(-c3ccccc3)nc12 [Compound 3a, 6-Amino-2,5-diphenyl-[1,2,4]triazolo[1′,5′:1,6]pyrido[2,3-d] pyrimidine-4-carbonitrile]	40.3 ± 2.4	–	–	1.85 ± 0.1 TE	–	–
N#Cc1c(-c2ccc(Cl)cc2)c2c(N)ncnc2n2nc(-c3ccccc3)nc12 [Compound 3f, 6-Amino-5-(4-chlorophenyl)-2-phenyl-[1,2,4]triazolo[1′,5′:1,6]pyrido[2,3-d] pyrimidine-4-carbonitrile]	43.9 ± 1.2	–	–	1.81 ± 0.1 TE	–	–
COc1ccccc1-c1c(C#N)c2nc(-c3ccccc3)nn2c2ncnc(N)c12 [Compound 3e, 6-Amino-5-(2-methoxyphenyl)-2-phenyl-[1,2,4]triazolo[1′,5′:1,6]pyrido[2,3-d] pyrimidine-4-carbonitrile]	32.3 ± 2.4	–	–	3.79 ± 0.1 TE	–	–
COc1cc(/C=C/C(=O)O)ccc1O [Ferulic acid, reference compound]	–	–	–	3.74 ± 0.2 TE	–	3.7
